Data set [1] deals with tumor xenografts. The note with it: previous studies; cited from earlier work.
The subject of data set [2] is GFP expressing adenovirus (Ad-GFP). Put plainly: Ad-GFP infection of HEK293A cells. The note with it: for Ad-GFP infection: 0.2-2 μM. The class given is cell-based. The text has this:
To test the effects of anti-virus infection of benzopyran-4-one derivative compounds, a green fluorescent protein (GFP) expressing adenovirus to visualize adenovirus infection was used. To obtain the reporter virus, the GFP cDNA is amplified from pEGFP-N1 (Clontech, Accession: U55762.1) through a polymerase chain reaction with primers 5′-CACCATGGTGAGCAAGGGC-3′ [SEQ ID NO: 5] and 5′-[…]-3′ [SEQ ID NO: 6], and then cloned into pENTR™/D-TOP vector (Invitrogen). The GFP cDNA was transferred to adenovirus vector pAd/CMV/V5-DEST™ through an in vitro recombination method using LR Clonase® II after the sequence was confirmed. We selected the ampicillin- and […] clones to obtain the pAd-GFP. The pAd-GFP plasmid is then transfected into E1a and E1b expressing HEK293A cells to produce a crude GFP expression adenoviral stock (Ad-GFP). The adenovirus was amplified by infecting HEK293A cells. The adenoviral stock was titered and later used to infect the cells for the analysis.
(§1) To observe the anti-virus effect of the benzopyran-4-one derivative compounds, Ad-GFP and Lenti-GFP at a low MOI of 0.5 were then applied to infect the HEK293A cells and HEK293T cells, respectively. In the prevention group, cells were treated by compounds of Compound I-1 at 0.2, 1, and 2 μM or Compound II-1 at 0.1, 0.5, 1 μM for 30 minutes before Ad-GFP and Lenti-GFP infection. In the treatment group, cells were treated by compounds of Compound I-1 at 0.2, 1, and 2 μM or Compound II-1 at 0.1, 0.5, and 1 μM for 2 hours after Ad-GFP and Lenti-GFP infection. After a total of 6 hours of compounds and virus treatments, cells were washed with Hank's buffered salt solution and a flash culture media was replaced.
(§2) 24 hours after virus infection, the effect of the benzopyran-4-one derivative compounds on the antivirus infection was recorded by observing the GFP positive cells under an inverted fluorescence microscope. The mean fluorescence intensity by flow cytometry in each plate of cells was analyzed for quantification.

Data set [3] deals with ATR-dependent Chk1 phosphorylation. Put plainly: Immunoblot of DNA damage-induced Chk1 phosphorylation. The format is cell-based, human. The text has this:
We hypothesized that genes with functions associated with DNA damage checkpoints and/or DNA repair might be targeted by benzopyran-4-one derivatives. To test this hypothesis, we assessed the effects of benzopyran-4-one derivatives on DDR induced by H2O2. […] In response to DNA double-strand breaks (DSBs), FANCD2 is known to be monoubiquitinated on K561 (FANCD2-Ub) in an ATR-dependent manner to stimulate repair (Andreassen P R, et al. Genes Dev 2004).
To elucidate the specificity of the benzopyran-4-one derivatives inhibition on ATR-mediated signaling, we compared the change between cells treated with benzopyran-4-one derivatives or the ATM-specific inhibitor KU55933 before the induction of DDR.
MDA-MB-231 (breast adenocarcinoma; ATCC HTB-26, BCRC 60425) and A549 (lung adenocarcinoma; ATCC CCL-185, BCRC 60074) human cell lines were purchased from Bioresource Collection and Research Center (BCRC, Hsinchu, Taiwan), and were authenticated by American Type Culture Collection (ATCC, Manassas, Va.). U2OS (osteosarcoma), HeLa (cervical adenocarcinoma), and HEK 293T (embryonic kidney cells) human cell lines were provided by Dr. Sheau-Yann Shieh (Institute of Molecular Biology, Academia Sinica, Taipei, Taiwan). Cells were maintained in Dulbecco's modified Eagle's medium (DMEM, Sigma-Aldrich) supplemented with 10% fetal bovine serum (FBS) (Gibco). […] For UV irradiation treatment, the cells were irradiated for 10 J/m^2 by a cross-linker (UVP) 1 h prior to analysis.
(§3) Cell lysate preparations, gel electrophoresis, and immunoblotting were performed as previously described (23). The binding of primary antibodies were detected by horseradish peroxidase-coupled secondary antibodies (Jackson ImmunoResearch) followed by enhanced chemiluminescence (ECL) (Millipore). The images of non-saturated bands were captured using a luminescent image analyzer (LAS-4000 mini; Fujifilm). The antibodies used in this study are listed in supplementary materials.
(In western blotting, separated proteins are transferred to a membrane and probed.)

The test system of data set [4] is MDA-MB-231 tumor xenograft. Put plainly: Human xenograft tumors in nude mice. The format is in vivo. The source says: Inhibition of the checkpoint and repair mechanisms leads to chemosensitization in cancers. […] We further treated individual cells with cisplatin in combination with several varying doses of benzopyran-4-one derivatives, and counted survival colonies to determine their ability to survive after cisplatin-induced damage. […] To investigate the chemosensitization effect of low-dose benzopyran-4-one derivatives in vivo, we established a tumor xenograft in nude mice using human MDA-MB-231 tumor cells, which are considered to be more resistant to cisplatin and are also sensitive to treatment with benzopyran-4-one derivatives, at least as compared to A549 cells (FIGS. 4, 17(a) and 17(b)). […] The pharmacokinetic data of Protoapigenone (I-1) and compound II-1 needs to be compared in future studies to determine the differences in the chemical effects of these 2 compounds in vitro and in vivo.
Human breast cancer MAD-MB-231 cells were harvested from the culture, resuspended in medium without serum at 1×10^8 cells/mL, and 0.1 mL of this suspension was subcutaneously injected into the right flank of female nude mice (BALB/cAnN-Foxn1nu/Crl Narl; purchased from the National Science Council Animal Center, Taiwan). Tumor-injected mice that successfully developed tumors that grew to approximately 50-100 mm^3 in volume were randomly sorted into groups and used for the experiments. […]
A general note: Xenograft models place foreign cells or tissue in a host animal.

Data set [5] relates to DDR signaling (Chk2 Thr68, Chk1 Ser345 phosphorylation). Put plainly: Immunoblot of DDR signaling after compound alone (no DNA damage). The format is cell-based, human. How it is done: Since mitomycin C can induce DDR in many cancers, we investigated what kind of DDR signaling was activated by Protoapigenone (I-1). […] We repeated the benzopyran-4-one derivatives experiment on lung and breast carcinoma cell lines A549 and MDA-MB-231 cells, respectively, and obtained similar results. Consistently, no marked changes in Chk1 and Chk2 phosphorylation signaling were detected even at high doses of either drug for as long as 8 h after drug treatment (FIGS. 3(a) and 3(b)).
as §3

The subject of data set [6] is GFP-expressing retrovirus (Lenti-GFP). Put plainly: Lenti-GFP infection of HEK293T cells. The class given is cell-based, lentivirus. How it is done: In addition to the test of the benzopyran-4-one derivative compounds on the DNA virus infection, they were tested on the retrovirus using a GFP-expressing retrovirus to visualize the […] infection. […]. Afterward, the lentiviral stock (Lenti-GFP) was titered and used to infect the cells for analysis.
as §1, §2

Where [7] appears, read: pre-treatment, 0.2-2 μM Compound I-1 or 0.1-1 μM Compound II-1.
Setting [8] is: post-treatment 2 hours after infection, 0.1-1 μM.
Where [9] appears, read: pre-treatment 30 minutes before infection, 0.1-1 μM, MOI 0.5, 24 hours.

The inhibition is the change of the read-out against control, counted positive when it falls.

As for `O=C1C=CC(O)(c2cc(=O)c3c(O)cc(O)cc3o2)C=C1` [Compound I-1, Protoapigenone], the “Size of tumor xenografts” value in data set [1] is “reduce the size of tumor xenografts”. The “Toxic effects on the recipient” value in data set [1] is “without exerting toxic effects on the recipient”. The results for the Ad-GFP infection result in data set [2] (post-treatment) and in data set [2] (pre-treatment) were “did not inhibit the Ad-GFP infection” and “did not prevent the Ad-GFP infection”, respectively. Moreover, the “Reversal of inhibition of Chk1 phosphorylation by okadaic acid or MG132 pretreatment” value in data set [3] (50 μM OA or 20 μM MG132, 10 J/m^2 UV 1 h) is on record as “could not reverse”. Besides, the Chk1 phosphorylation entry in data set [3] (A594 cells, 0.1 mM H2O2 for 2 h) was “inhibit”. Moreover, the “Reversal of Chk1 phosphorylation inhibition by overexpression of ATR mediators” value in data set [3] (HEK293T cells overexpressing ATRIP, TopBP1, claspin or ATR, 10 J/m^2 UV, 1 h) is “overexpression of ATRIP or TopBP1 did not reverse the inhibitory effect of Protoapigenone (I-1) on Chk1 phosphorylation, whereas overexpression of claspin or ATR did”. Besides, the “Cisplatin sensitivity of MDA-MB-231 tumors” value in data set [4] (2 mg/kg (data not shown)) is listed as “did not affect the cisplatin sensitivity”. Further, the p53 protein accumulation entry in data set [5] (HEK293T cells) is given as “slight accumulation of the p53 protein”. The “Change of putative DDR signaling (phosphorylation of Chk2 Thr68 and Chk1 Ser345)” value in data set [5] (HEK293T cells, high doses (10 μM, FIG. 2)) is “did not induce noticeable changes”. Moreover, the “MAPKAPK2 phosphorylation (p38 MAPK target)” value in data set [5] (HEK293T cells, time after exposure) was “phosphorylated starting as early as 2 h”. Moreover, the “MFI of GFP protein” value is given as “showed an inhibition effect” in data set [6] (post-treatment, 2 μM) and “significantly decreased” in data set [6] (setting [7]).

As for `O=C1C=CC(O)(c2cc(=O)c3c(ccc4ccccc43)o2)C=C1` [Compound II-1, 3-(1-hydroxy-4-oxo-cyclohexa-2,5-dienyl)-1H-benzo[f]chromen-1-one], in data set [1], the “Size of tumor xenografts” value is given as “reduce the size of tumor xenografts” and the “Toxic effects on the recipient” value is “without exerting toxic effects on the recipient”. Besides, in data set [2] (setting [8]), the “MFI of GFP protein” value is on record as “decreased” and the “Number of GFP cells” value was “decreased”. For the same molecule, in data set [2] (setting [9]), the “Mean fluorescence intensity (MFI) of GFP protein” value is listed as “decreased” and the “Number of GFP cells” value is on record as “decreased”. For the same molecule, the inhibition at 1 µM in data set [2] (unidentified adenovirus, HEK293-A, read-out: Virus inhibition effect) fell in the range of 50 to 99%. The “Potency in inhibiting Chk1 phosphorylation, comparison” value in data set [3] (FIGS. 6(a), 6(b)) was “more potent than Protoapigenone (I-1)”. For the same molecule, the Tumor inhibitory effect entry in data set [4] (0.2 mg/kg with 2 mg/kg cisplatin, intraperitoneally every 4 d) is recorded as “greater than that of cisplatin treatment alone”. Besides, the “Chk2 activation by compound itself” value in data set [5] (high dose, no DNA damage (FIGS. 3(a), 3(b))) is listed as “slightly induces”. Besides, the “MFI of GFP protein” value in data set [6] (setting [8]) was “significantly decreased”. Moreover, in data set [6] (setting [7]), the “MFI of GFP protein” value was “significantly decreased”.

The values above are taken from patent US11413267B2, “Methods and compositions for inhibition of ATR and FANCD2 activation” (priority 2012, dated 2022).
